For the data set the following is noted: Crystal; DTA.

Numbers after ± are expanded uncertainties.

Take `O=C1C=CC(=O)N1c1cc(F)c(Br)c(F)c1` [1-(4-bromo-3,5-difluorophenyl)-1H-pyrrole-2,5-dione]: the Normal melting temperature came to 197.5 ± 0.7 °C.

Source of the values: the NIST ThermoML archive (doi:10.1021/je100819f).
